Reference: patent publication US10265296B2, “Methods for the treatment of systemic disorders treatable with mast cell stabilizers, including mast cell related disorders” (Respivant Sciences GmbH, priority 2015, dated 2019)
Where two headings read alike, the source gives them in different places.

Columns and labels:
[1] = cited from earlier work
[2] = Single-dose, dose escalation study Part 1: pharmacokinetics of plasma and urine DSCG in healthy subjects; format: in vivo, human; details: same dose (40 mg)
Experimental: • 1. […] 200 mg oral sodium cromoglycate solution (commercially available product), oral administration. […] 200 mg oral sodium cromoglycate solution (commercially available product), oral administration.
Prior to each dosing day, subjects were admitted to the clinic in the morning for baseline (pre-dose) assessments. Subjects were required to remain in the clinic for 12 h after study drug administration on each dosing day. Treatment Visits were separated by a washout period of 2 to 5 days.
Urine DSCG levels were measured for total DSCG excretion in the urine, and the bioavailability of the DSCG was calculated from the measured levels.
Pharmacokinetic parameters and plasma concentrations are listed and summarized. The summary statistics are presented as the geometric mean, arithmetic mean, arithmetic standard deviation (SD), min, median, max and n. The geometric statistics are not presented for Tmax. Analysis of variance (ANOVA) including terms for subject and treatment are used to calculate point estimates, and confidence intervals (CI) for treatment differences with respect to PK parameters (90% CI) are calculated.

lung deposition with the 30 L device compared with the 40 L device, indicated by AUC data [2]: surprisingly higher
Compound: O=C(O)c1cc(=O)c2c(OCC(O)COc3cccc4oc(C(=O)O)cc(=O)c34)cccc2o1 [Cromolyn sodium, cromolyn sodium]
oral bioavailability ([1]; listed as cromolyn sodium): less than 1% | oral bioavailability ([1]; listed as cromolyn): about 1%
